Reference: patent publication US20240116985A1, “STAPLED PEPTIDES AND METHODS THEREOF” (priority 2020, published 2024)
Like-named read-outs stand apart in the source and are kept apart here.

Columns and labels:
[1] = target: T1, full-length beta-Catenin (Uniprot ID P35222) (Homo sapiens, UniProt P35222); assay: Fluorescence polarization IC50 (beta-catenin / 5FAM-TCF4 10-53 competition); type: binding; settings: fluorescence polarization; read-out: beta-Catenin FP IC50
T1 construct: 10 nM full-length beta-Catenin (Uniprot ID P35222)
T1 sequence (P35222 1-781): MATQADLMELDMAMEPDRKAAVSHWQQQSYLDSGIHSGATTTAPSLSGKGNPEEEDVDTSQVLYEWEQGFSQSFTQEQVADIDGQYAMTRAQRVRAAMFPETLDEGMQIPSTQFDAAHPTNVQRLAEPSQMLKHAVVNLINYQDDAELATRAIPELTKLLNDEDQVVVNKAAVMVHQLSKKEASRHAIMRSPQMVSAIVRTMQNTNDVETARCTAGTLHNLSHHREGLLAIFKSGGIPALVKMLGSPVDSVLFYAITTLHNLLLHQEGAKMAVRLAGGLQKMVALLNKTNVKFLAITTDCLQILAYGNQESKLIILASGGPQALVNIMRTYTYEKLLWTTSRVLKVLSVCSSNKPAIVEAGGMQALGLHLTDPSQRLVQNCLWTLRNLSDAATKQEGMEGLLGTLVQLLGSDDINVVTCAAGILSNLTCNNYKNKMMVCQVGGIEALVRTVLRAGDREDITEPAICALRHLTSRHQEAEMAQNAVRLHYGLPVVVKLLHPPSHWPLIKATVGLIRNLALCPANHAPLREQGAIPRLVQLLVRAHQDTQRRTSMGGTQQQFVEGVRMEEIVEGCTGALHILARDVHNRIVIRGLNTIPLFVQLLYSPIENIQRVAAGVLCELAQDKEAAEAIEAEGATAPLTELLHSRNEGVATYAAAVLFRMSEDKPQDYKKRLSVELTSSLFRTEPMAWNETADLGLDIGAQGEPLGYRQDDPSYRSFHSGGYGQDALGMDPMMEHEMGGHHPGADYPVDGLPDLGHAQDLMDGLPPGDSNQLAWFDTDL

[2] = target: T2, beta-catenin/TCF4 engagement (Homo sapiens, UniProt P35222); assay: Nano-BRET target engagement assay (B-cat-Halo & TCF4-Luc in HEK293 cells); type: cell-based; settings: read-out: NanoBRET Abs IC50
T2 construct: expressed in transfected cells; host or cells: HEK293
T2 sequence (P35222 1-781): T1 sequence (P35222 1-781)

| SMILES | IC50 [1] | IC50 ([2]; absolute IC50) | IC50 [2] |
| --- | --- | --- | --- |
| CC(=O)N1CCC[C@]12CC=CCCCC1(CCCC=CCCCOC(=O)N3CC[C@@](C(=O)N[C@@H](Cc4ccccc4)C(=O)N[C@@H](Cc4csc5ccccc45)C(=O)N[C@@H](CCC(N)=O)C(N)=O)(C3)NC(=O)[C@H](CC(C)C)NC(=O)[C@H](Cc3ccccc3)NC(=O)[C@H](C)NC(=O)[C@H](C)NC(=O)[C@H](CN(CC(=O)O)CC(F)(F)F)NC(=O)[C@H](CC(=O)O)NC1=O)NC(=O)[C@H](CC(C)(C)C)NC(=O)[C@H](CC(=O)O)NC2=O (stereo partly drawn) [I-1700, Ac-PL3-Asp-Npg-B5-Asp-TfeGA-Ala-Ala-Phe-Leu-PyrS2-Phe-BztA-Gln-NH2] | 16 nM | 4800 nM |  |
| CC(=O)N1CCC[C@]12CC=CCCCC1(CCCC=CCCCCCC[C@@](C)(C(=O)N[C@@H](Cc3ccccc3)C(=O)N[C@@H](Cc3csc4ccccc34)C(=O)N[C@@H](CCC(N)=O)C(N)=O)NC(=O)[C@H](CCO)NC(=O)[C@H](Cc3ccccc3)NC(=O)[C@H](C)NC(=O)[C@H](C)NC(=O)[C@H](CCC(=O)O)NC(=O)[C@H](CC(=O)O)NC1=O)NC(=O)[C@H](CCC(C)C)NC(=O)[C@H](CC(=O)O)NC2=O (stereo partly drawn) [I-1538, Ac-PL3-Asp-Hleu-B5-Asp-Glu-Ala-Ala-Phe-Hse-S8-Phe-BztA-Gln-NH2] | 21 nM | 11800 nM |  |
| CC(=O)N1CCC[C@]12CC=CCCCC1(CCCC=CCCCOC(=O)N3CC[C@@](C(=O)N[C@@H](Cc4ccsc4)C(=O)N[C@@H](Cc4csc5ccccc45)C(=O)N[C@@H](CO)C(N)=O)(C3)NC(=O)[C@H](CC(C)C)NC(=O)[C@H](Cc3ccccc3)NC(=O)[C@H](C)NC(=O)[C@H](C)NC(=O)[C@H](Cc3ccccc3C(=O)O)NC(=O)[C@H](CC(=O)O)NC1=O)NC(=O)[C@H](CC(C)(C)C)NC(=O)[C@H](CC(=O)O)NC2=O (single isomer, unassigned) [I-1666, Ac-PL3-Asp-Npg-B5-Asp-2COOHF-Ala-Ala-Phe-Leu-PyrS2-3Thi-BztA-Ser-NH2] | 15 nM | 6500 nM |  |
| CC(=O)N1CCC[C@]12CC=CCCCC1(CCCC=CCCCOC(=O)N3CC[C@@](C(=O)N[C@@H](Cc4ccsc4)C(=O)N[C@@H](Cc4csc5ccccc45)C(=O)N[C@@H](CCC(N)=O)C(N)=O)(C3)NC(=O)[C@H](CC(N)=O)NC(=O)[C@H](Cc3ccccc3)NC(=O)[C@H](C)NC(=O)[C@H](C)NC(=O)[C@H](CCC(N)=O)NC(=O)[C@H](CC(N)=O)NC1=O)NC(=O)[C@H](CC(C)(C)C)NC(=O)[C@H](CC(=O)O)NC2=O (stereo partly drawn) [I-1567, Ac-PL3-Asp-Npg-B5-Asn-Gln-Ala-Ala-Phe-Asn-PyrS2-3Thi-BztA-Gln-NH2] | 182 nM | > 20000 nM |  |
| CC(=O)N1CCC[C@]12CC=CCCCC1(CCCC=CCCCOC(=O)N3CC[C@@](C(=O)N[C@@H](Cc4ccsc4)C(=O)N[C@@H](Cc4csc5ccccc45)C(=O)N[C@@H](Cc4ccccc4)C(N)=O)(C3)NC(=O)[C@H](CC(C)C)NC(=O)[C@H](Cc3ccccc3)NC(=O)[C@H](C)NC(=O)[C@H](CCCCNC(C)C)NC(=O)[C@H](Cc3cccc(C(=O)O)c3)NC(=O)[C@H](CC(=O)O)NC1=O)NC(=O)[C@H](CC(C)(C)C)NC(=O)[C@H](CC(=O)O)NC2=O (stereo partly drawn) [I-1909, Ac-PL3-Asp-Npg-B5-Asp-3COOHF-iPrLys-Ala-Phe-Leu-PyrS2-3Thi-BztA-Phe-NH2] | 29 nM |  | > 20000 nM |
| CC(=O)N1CCC[C@]12CC=CCCCC1(CCCC=CCCCOC(=O)N3CC[C@@](C(=O)N[C@@H](Cc4ccccc4Cl)C(=O)N[C@@H](Cc4csc5ccccc45)C(=O)N[C@@H](CCC(N)=O)C(N)=O)(C3)NC(=O)[C@H]([C@@H](C)O)NC(=O)[C@H](Cc3ccccc3)NC(=O)CNC(=O)C(C)(C)NC(=O)[C@H](CN(CC(=O)O)CC(F)(F)F)NC(=O)[C@H](CC(=O)O)NC1=O)NC(=O)[C@H](CC(C)(C)C)NC(=O)[C@H](CC(=O)O)NC2=O (stereo partly drawn) [I-1696, Ac-PL3-Asp-Npg-B5-Asp-TfeGA-Aib-Gly-Phe-Thr-PyrS2-2C1F-BztA-Gln-NH2] | 32 nM | 35500 nM |  |
| CC(=O)N1CCC[C@]12CC=CCCCC1(CCCC=CCCCOC(=O)N3CC[C@@](C(=O)N[C@@H](Cc4ccccc4Cl)C(=O)N[C@@H](Cc4csc5ccccc45)C(=O)N[C@@H](CO)C(N)=O)(C3)NC(=O)[C@H](CC(C)C)NC(=O)[C@H](Cc3ccccc3)NC(=O)[C@H](C)NC(=O)[C@H](C)NC(=O)[C@H](Cc3ccccc3C(=O)O)NC(=O)[C@H](CC(=O)O)NC1=O)NC(=O)[C@H](CC(C)(C)C)NC(=O)[C@H](CC(=O)O)NC2=O (stereo partly drawn) [I-1663, Ac-PL3-Asp-Npg-B5-Asp-2COOHF-Ala-Ala-Phe-Leu-PyrS2-2C1F-BztA-Ser-NH2] | 67 nM | 8500 nM |  |
| CC(=O)N1CCC[C@]12CC=CCCCC1(CCCC=CCCCOC(=O)N3CC[C@@](C(=O)N[C@@H](Cc4ccsc4)C(=O)N[C@@H](Cc4cccc5ccccc45)C(=O)N[C@@H](CCC(N)=O)C(N)=O)(C3)NC(=O)[C@H](CC(C)C)NC(=O)[C@H](Cc3ccccc3)NC(=O)[C@H](C)NC(=O)[C@H](C)NC(=O)[C@H](CC(=O)O)NC(=O)[C@H](CC(=O)O)NC1=O)NC(=O)[C@H](CC(C)(C)C)NC(=O)[C@H](CC(=O)O)NC2=O (stereo partly drawn) [I-1234, Ac-PL3-Asp-Npg-B5-Asp-Asp-Ala-Ala-Phe-Leu-PyrS2-3Thi-1NapA-Gln-NH2] | 41 nM | 23900 nM |  |

Further lines, results first:

| IC50 [1] | IC50 ([2]; absolute IC50) | IC50 [2] | SMILES |
| --- | --- | --- | --- |
| 12 nM |  | 26900 nM | CC(=O)N1CCC[C@]12CC=CCCCC1(CCCC=CCCCOC(=O)N3CC[C@@](C(=O)N[C@@H](Cc4ccsc4)C(=O)N[C@@H](Cc4csc5ccccc45)C(=O)N[C@@H](CCC(N)=O)C(N)=O)(C3)NC(=O)[C@H](CC(C)C)NC(=O)[C@H](Cc3cccc(C(=O)O)c3)NC(=O)[C@H](C)NC(=O)[C@H](C)NC(=O)[C@H](Cc3c[nH]cn3)NC(=O)[C@H](CC(=O)O)NC1=O)NC(=O)[C@H](CC(C)(C)C)NC(=O)[C@H](CC(=O)O)NC2=O (stereo partly drawn) [I-2123, Ac-PL3-Asp-Npg-B5-Asp-His-Ala-Ala-3COOHF-Leu-PyrS2-3Thi-BztA-Gln-NH2] |
| 6990 nM | > 20000 nM |  | CCOC(=O)C[C@@H]1NC(=O)C2(CCCC=CCCCOC(=O)N3CC[C@@](C(=O)N[C@@H](Cc4ccsc4)C(=O)N[C@@H](Cc4csc5ccccc45)C(=O)N[C@@H](CCC(N)=O)C(N)=O)(C3)NC(=O)[C@H](CC(C)C)NC(=O)[C@H](Cc3ccccc3)NC(=O)[C@H](C)NC(=O)[C@H](C)NC(=O)[C@H](CC(=O)O)NC1=O)CCCC=CC[C@]1(CCCN1C(C)=O)C(=O)N[C@@H](CC(=O)O)C(=O)N[C@@H](CC(C)(C)C)C(=O)N2 (stereo partly drawn) [I-2357, Ac-PL3-Asp-Npg-B5-[Et]AspE-Asp-Ala-Ala-Phe-Leu-PyrS2-3Thi-BztA-Gln-NH2] |
| 37 nM |  | > 20000 nM | CC(=O)N1CCC[C@]12CC=CCCCC1(CCCC=CCCCOC(=O)N3CCC(C(=O)N[C@@H](Cc4ccsc4)C(=O)N[C@@H](Cc4csc5ccccc45)C(=O)N[C@@H](C)C(N)=O)(CC3)NC(=O)[C@H](CC(C)C)NC(=O)[C@H](Cc3ccccc3)NC(=O)[C@H](C)NC(=O)[C@H](CCC(N)=O)NC(=O)[C@H](Cc3cccc(C(=O)O)c3)NC(=O)[C@H](CC(=O)O)NC1=O)NC(=O)[C@H](CC(C)(C)C)NC(=O)[C@H](CC(=O)O)NC2=O (stereo partly drawn) [I-2592, Ac-PL3-Asp-Npg-B5-Asp-3COOHF-Gln-Ala-Phe-Leu-SPip2-3Thi-BztA-Ala-NH2] |
| 93 nM | > 20000 nM |  | CC(=O)N1CCC[C@]12CC=CCCCC1(CCCC=CCCCOC(=O)N3CC[C@@](C(=O)N[C@@H](Cc4ccsc4)C(=O)N[C@@H](Cc4csc5ccccc45)C(=O)N[C@@H](CCC(N)=O)C(N)=O)(C3)NC(=O)[C@H](CC(C)C)NC(=O)[C@H](Cc3ccccc3)NC(=O)[C@H](C)NC(=O)[C@H](CCCCNC(C)C)NC(=O)[C@H](CCC(N)=O)NC(=O)[C@H](CC(=O)O)NC1=O)NC(=O)[C@H](CC1CCCCC1)NC(=O)[C@H](CC(N)=O)NC2=O (stereo partly drawn) [I-2446, Ac-PL3-Asn-Cha-B5-Asp-Gln-iPrLys-Ala-Phe-Leu-PyrS2-3Thi-BztA-Gln-NH2] |
| 79 nM | 16500 nM |  | CC(=O)N1CCC[C@]12CC=CCCCC1(CCCC=CCCCOC(=O)N3CC[C@@](C(=O)N[C@@H](Cc4ccccc4C(F)(F)F)C(=O)N[C@H](C(=O)N[C@@H](CCC(N)=O)C(N)=O)[C@@H](C)c4ccc5ccccc5c4)(C3)NC(=O)[C@H](CC(C)C)NC(=O)[C@H](Cc3ccccc3)NC(=O)[C@H](C)NC(=O)[C@H](C)NC(=O)[C@H](Cc3cccc(C(=O)O)c3)NC(=O)[C@H](CC(=O)O)NC1=O)NC(=O)[C@H](CC(C)(C)C)NC(=O)[C@H](CC(=O)O)NC2=O (stereo partly drawn) [I-2464, Ac-PL3-Asp-Npg-B5-Asp-3COOHF-Ala-Ala-Phe-Leu-PyrS2-2F3MeF-SbMe2NapA-Gln-NH2] |
| 11 nM |  | 5000 nM | CC(=O)N1CCC[C@]12CC=CCCCC1(CCCC=CCCCOC(=O)N3CC[C@@](C(=O)N[C@@H](Cc4ccsc4)C(=O)N[C@@H](Cc4csc5ccccc45)C(=O)N[C@@H](CO)C(N)=O)(C3)NC(=O)[C@H](CC(C)C)NC(=O)[C@H](Cc3ccccc3)NC(=O)[C@H](C)NC(=O)[C@H](C)NC(=O)[C@H](Cc3ccc(F)c(C(=O)O)c3)NC(=O)[C@H](CC(=O)O)NC1=O)NC(=O)[C@H](CC(C)(C)C)NC(=O)[C@H](CC(=O)O)NC2=O (stereo partly drawn) [I-2202, Ac-PL3-Asp-Npg-B5-Asp-4F3COOHF-Ala-Ala-Phe-Leu-PyrS2-3Thi-BztA-Ser-NH2] |
